In patent US10144708B2, “Crystalline arylalkylamine compound and process for producing the same” (MITSUBISHI TANABE PHARMA CORPORATION, priority 2013, dated 2018):

Assays:
Assay type in all cases: physicochemical
[1] = Stability test: storage of Compound (A) and salts thereof, total increase in amounts of related substance; conditions: conditions of No. 16 of Table 3: 60° C., 75% RH, 1 Week
[2] = as above; conditions: for Total increase in amounts of related substance (%): storage 60° C., 1 Week; for Increase in the amounts of related substance on storage (in words): storage conditions of Table 3 (60° C., Natural or 75% RH, 1 Week)
Description: Compound (A) and salts thereof were stored under the storage conditions described in Table 3, and the total increase in the amounts of related substance was measured.

[3] = Determination of crystal form stable at room temperature (form A and form B suspended together in chloroform, powder X-ray diffractometry); conditions: equal amounts of form A and form B suspended in chloroform, stirred at room temperature overnight
Description: Equal amounts of the form A crystal and the form B crystal of Compound (A) were added to the same container and were suspended in chloroform. The suspension was stirred at room temperature overnight. Thereafter, the suspended matter was filtered off and was analyzed by powder X-ray diffractometry to determine the type of the crystal form.

[4] = Natural humidity, hydrochloride

For `C1CCOC1.C[C@@H](N[C@H]1CCN(c2ccc(CC(=O)O)cc2)C1)c1cccc2ccccc12.Cl` [Compound (A) 1HCl•1THF Crystal, 4-(3S-(1R-(1-naphthyl)ethylamino)pyrrolidin-1-yl)phenylacetic acid.monohydrochloride.monotetrahydrofuran solvate], the “Change of solid form on storage” value [1] was “conversion thereof into Compound (A).monohydrochloride (crystal)”, the “Total increase in amounts of related substance (%)” value (shortened to “Total increase in amounts … (%)”) ([2]; 75% RH) was 1.04% and the “Total increase in amounts … (%)” value ([2]; Natural humidity) was 0.75%. For the same compound, the “Increase in the amounts of related substance on storage (in words)” value (shortened to “Increase in the amounts”) [2] was “increase in the amounts of related substance was observed”.
In the case of `Br.C[C@@H](N[C@H]1CCN(c2ccc(CC(=O)O)cc2)C1)c1cccc2ccccc12` [Compound (A) 1HBr Crystal, 4-(3S-(1R-(1-naphthyl)ethylamino)pyrrolidin-1-yl)phenylacetic acid.monohydrobromide], the “Total increase in amounts … (%)” value ([2]; 75% RH) is reported as 0.13%, the “Total increase in amounts … (%)” value ([2]; Natural humidity) is reported as 0.21% and the “Increase in the amounts” value [2] is reported as “increase in the amounts of related substance was observed”.
For `C[C@@H](N[C@H]1CCN(c2ccc(CC(=O)O)cc2)C1)c1cccc2ccccc12.Cl` [Compound (A) 1HCl Crystal, 4-(3S-(1R-(1-naphthyl)ethylamino)pyrrolidin-1-yl)phenylacetic acid-monohydrochloride], the “Total increase in amounts … (%)” value ([2]; 75% RH) was 1.02%, the “Total increase in amounts … (%)” value ([2]; Natural humidity) was 0.18% and the “Increase in the amounts” value ([2]; listed as Compound (A).monohydrochloride) was “increase in the amounts of related substance was observed”.
In the case of `C[C@@H](N[C@H]1CCN(c2ccc(CC(=O)O)cc2)C1)c1cccc2ccccc12` [Compound (A) Amorphous, 4-(3S-(1R-(1-naphthyl)ethylamino)pyrrolidin-1-yl)phenylacetic acid (amorphous)], the “Total increase in amounts … (%)” value ([2]; 75% RH) is reported as 14.16%, the “Total increase in amounts … (%)” value ([2]; Natural humidity) is reported as 3.32% and the “Increase in the amounts” value ([2]; listed as amorphous Compound (A)) is reported as “significantly increased”.
For `C[C@@H](N[C@H]1CCN(c2ccc(CC(=O)O)cc2)C1)c1cccc2ccccc12` [Compound (A) Crystal (Form A), 4-(3S-(1R-(1-naphthyl)ethylamino)pyrrolidin-1-yl)phenylacetic acid (form A crystal)], the “Crystal form stable at room temperature” value [3] was “more stable at room temperature”, the “Total increase in amounts … (%)” value ([2]; 75% RH) was 0.01% and the “Total increase in amounts … (%)” value ([2]; Natural humidity) was 0.03%. The “Increase in the amounts” value ([2]; listed as form A crystal of Compound (A)) was “did not show a marked increase”.
In the case of `C[C@@H](N[C@H]1CCN(c2ccc(CC(=O)O)cc2)C1)c1cccc2ccccc12.Cl` [Compound (A) 1.5HCl Amorphous, 4-(3S-(1R-(1-naphthyl)ethylamino)pyrrolidin-1-yl)phenylacetic acid-1.5 hydrochloride], the “Total increase in amounts … (%)” value ([2]; 75% RH, hydrochloride) is reported as 3.11%, the “Total increase in amounts … (%)” value [2, 4] is reported as 8.21% and the “Increase in the amounts” value ([2]; listed as amorphous Compound (A).1.5 hydrochloride, hydrochloride) is reported as “significantly increased”.
For `C[C@@H](N[C@H]1CCN(c2ccc(CC(=O)O)cc2)C1)c1cccc2ccccc12` [Compound (A) Crystal (Form B), 4-(3S-(1R-(1-naphthyl)ethylamino)pyrrolidin-1-yl)phenylacetic acid (form B crystal)], the “Total increase in amounts … (%)” value ([2]; 75% RH) was 0.00%, the “Total increase in amounts … (%)” value ([2]; Natural humidity) was 0.00% and the “Increase in the amounts” value ([2]; listed as form B crystal of Compound (A)) was “did not show a marked increase”.
For `C[C@@H](N[C@H]1CCN(c2ccc(CC(=O)O)cc2)C1)c1cccc2ccccc12.Cl` [Compound (A) 1.7HCl Amorphous, 4-(3S-(1R-(1-naphthyl)ethylamino)pyrrolidin-1-yl)phenylacetic acid.1.7 hydrochloride], the “Total increase in amounts … (%)” value ([2]; 75% RH, hydrochloride) was 3.06%, the “Total increase in amounts … (%)” value [2, 4] was 8.33% and the “Increase in the amounts” value ([2]; listed as amorphous Compound (A).1.7 hydrochloride, hydrochloride) was “significantly increased”.
